In brackets after ≈: the same amount, converted by molar mass.
Assays:
E. coli 50739822 = test: MIC, multi-resistant clinical isolate; format: cell-based, Escherichia coli; settings: for MIC: Escherichia coli, read-out: Antimicrobial activity (MIC); for selectivity index (EC50/MIC): RBC EC50 / MIC
Method: (§1) Working solutions of the test derivatives were prepared with up to 100% DMSO and stored at −20° C. If necessary, the solutions were heated to 40-80° C. before testing to facilitate complete dissolution. Double-distilled water was used in all dilutions prepared. […] A microdilution susceptibility test was used for MIC determination according to Clinical and Laboratory Standards Institute, “Methods for Dilution Antimicrobial Sisceptibility Tests for Bacteria That Graw Aerobically”, Approved Standard M07-A9, edition 2012, with modifications as described by Igumnova et al (Bioorg Med Chem, 2016, 24 (22), 5884-5894).
(§2) Briefly, the bacterial inoculum was adjusted to approximately 2.5-3×10^4 cells/mL in Mueller-Hinton broth (MHB, Difco Laboratories, USA), and incubated in a ratio of 1:1 with test derivatives in polystyrene 96-well flat-bottom microplates (NUNC, Roskilde, Denmark). Positive growth control (without test derivatives) and negative control (without bacteria) were included. The reference antibiotic was oxytetracycline hydrochloride (Sigma Aldrich, Saint Louis, Mo., USA). The microplates were incubated in an EnVision microplate reader (Perkin-Elmer, Turku, Finland) placed in an incubator set to 35° C. for 48 h. The MIC value was defined as the lowest concentration of derivative resulting in no bacterial growth as determined by OD600 measurement. All derivatives were tested in three parallels.
(§3) The MIC was determined as explained above with some exceptions; working solutions of test derivatives were prepared from concentrated DMSO stocks stored at room temperature, the density of the bacterial inoculum was increased 40× to 1-1.2×10^6 cells/mL, enterococci were incubated in Brain Heart Infusion broth (BHIB, Difco Laboratories, USA), the microplates were incubated for 24 h, and the derivatives were tested in four parallels.

E. coli 50676002 = test: MIC, multi-resistant clinical isolate; format: cell-based, Escherichia coli; settings: for MIC: Escherichia coli, 50676002, read-out: Antimicrobial activity (MIC); for selectivity index (EC50/MIC): RBC EC50 / MIC, E. coli 50676002
Method: as §1, §2, §3

P. aeruginosa K44-24 = test: MIC, multi-resistant clinical isolate; format: cell-based, Pseudomonas aeruginosa; settings: for MIC: Pseudomonas aeruginosa, K4424, read-out: Antimicrobial activity (MIC); for selectivity index (EC50/MIC): RBC EC50 / MIC
Method: as §1, §2, §3

P. aeruginosa 50692172 = test: MIC, multi-resistant clinical isolate; format: cell-based, Pseudomonas aeruginosa; settings: for MIC: Pseudomonas aeruginosa, read-out: Antimicrobial activity (MIC); for selectivity index (EC50/MIC): RBC EC50 / MIC
Method: as §1, §2, §3

P. aeruginosa 50692520 = test: MIC, multi-resistant clinical isolate; format: cell-based, Pseudomonas aeruginosa; settings: for MIC: Pseudomonas aeruginosa, read-out: Antimicrobial activity (MIC); for selectivity index (EC50/MIC): RBC EC50 / MIC
Method: as §1, §2, §3

P. aeruginosa K34-7 = test: MIC, multi-resistant clinical isolate; format: cell-based, Pseudomonas aeruginosa; settings: for MIC: Pseudomonas aeruginosa, K347, read-out: Antimicrobial activity (MIC); for selectivity index (EC50/MIC): RBC EC50 / MIC, P. aeruginosa K34-7
Method: as §1, §2, §3

P. aeruginosa K34-73 = test: MIC, multi-resistant clinical isolate; format: cell-based, Pseudomonas aeruginosa; settings: for MIC: Pseudomonas aeruginosa, K3473, read-out: Antimicrobial activity (MIC); for selectivity index (EC50/MIC): RBC EC50 / MIC, P. aeruginosa K34-73
Method: as §1, §2, §3

A. baumanii K63-58 = test: MIC, multi-resistant clinical isolate; format: cell-based, Acinetobacter baumannii; settings: A. baumanii K63-58, resistant to colistin; for MIC: Acinetobacter baumannii, K6358, 24 h, read-out: Antimicrobial activity (MIC); for selectivity index (EC50/MIC): RBC EC50 / MIC
Method: as §1, §2, §3

A. baumanii K44-35 = test: MIC, multi-resistant clinical isolate; format: cell-based, Acinetobacter baumannii; settings: for MIC: Acinetobacter baumannii, K4435, read-out: Antimicrobial activity (MIC); for selectivity index (EC50/MIC): RBC EC50 / MIC
Method: as §1, §2, §3

A. baumanii K47-42 = test: MIC, multi-resistant clinical isolate; format: cell-based, Acinetobacter baumannii; settings: for MIC: Acinetobacter baumannii, K4742, read-out: Antimicrobial activity (MIC); for selectivity index (EC50/MIC): RBC EC50 / MIC
Method: as §1, §2, §3

A. baumanii K55-13 = test: MIC, multi-resistant clinical isolate; format: cell-based, Acinetobacter baumannii; settings: for MIC: Acinetobacter baumannii, K5513, read-out: Antimicrobial activity (MIC); for selectivity index (EC50/MIC): RBC EC50 / MIC
Method: as §1, §2, §3

A. baumanii K12-21 = test: MIC, multi-resistant clinical isolate; format: cell-based, Acinetobacter baumannii; settings: for MIC: Acinetobacter baumannii, K1221, read-out: Antimicrobial activity (MIC); for selectivity index (EC50/MIC): RBC EC50 / MIC
Method: as §1, §2, §3

[1] = test system: panel of 30 multi-resistant clinical isolates of Gram-positive and Gram-negative bacteria; test: MIC screening, ranges over the panel of clinical isolates; format: cell-based; settings: read-out: MIC values against S. aurues, E. faecium and E. coli
Method: as §1, §2, §3

S. aureus N315 = test: MIC, multi-resistant clinical isolate; format: cell-based, Staphylococcus aureus; settings: for selectivity index (EC50/MIC): RBC EC50 / MIC, S. aureus N315; for MIC: Staphylococcus aureus, N315, read-out: Antimicrobial activity (MIC)
Method: as §1, §2, §3

S. aureus NCTC 10442 = test: MIC, multi-resistant clinical isolate; format: cell-based, Staphylococcus aureus; settings: for selectivity index (EC50/MIC): RBC EC50 / MIC, S. aureus NCTC 10442; for MIC: Staphylococcus aureus, NCTC10442, read-out: Antimicrobial activity (MIC)
Method: as §1, §2, §3

S. aureus strain 85/2082 = test: MIC, multi-resistant clinical isolate; format: cell-based, Staphylococcus aureus; settings: for selectivity index (EC50/MIC): RBC EC50 / MIC, S. aureus strain 85/2082; for MIC: Staphylococcus aureus, 85/2082, read-out: Antimicrobial activity (MIC)
Method: as §1, §2, §3

S. aureus IHT 99040 = test: MIC, multi-resistant clinical isolate; format: cell-based, Staphylococcus aureus; settings: for selectivity index (EC50/MIC): RBC EC50 / MIC; for MIC: Staphylococcus aureus, IHT99040, read-out: Antimicrobial activity (MIC)
Method: as §1, §2, §3

S. aureus strain WIS = test: MIC, multi-resistant clinical isolate; format: cell-based, Staphylococcus aureus; settings: for selectivity index (EC50/MIC): RBC EC50 / MIC, S. aureus strain WIS; for MIC: Staphylococcus aureus, read-out: Antimicrobial activity (MIC)
Method: as §1, §2, §3

[2] = test system: human metastatic melanoma (A2058, ATCC CRL-11147) cells; test: Anti-cancer activity against A2058 cells; format: cell-based; settings: A2058, read-out: Anti-cancer IC50
Method: Cytotoxicity of the test compounds was evaluated after 72 hour exposure to human metastatic melanoma (A2058, ATCC CRL-11147) cells.
A2058 cells were grown overnight (2,000 cells/well), and then incubated with the test compounds (range of concentrations) diluted in MEM Earle's supplemented with gentamycin (10 μg/mL), non-essential amino acids (1%), sodium pyruvate (1 mM), L-alanyl-Lglutamine (2 mM), but without FBS (total volume was 100 μl) for […]. Ten μL of CellTiter 96® AQueous One Solution Reagent (Promega, Madison, Wis., USA) was added, and the plates were then further incubated for 1 hour.
Absorbance was measured at 485 nm in a DTX 880 Multimode Detector. Results were calculated as % survival compared to negative (assay media) and positive (Triton X-100; Sigma-Aldrich) controls.

Structure (SMILES) | MIC (E. coli 50739822) [µg/mL] | selectivity index (EC50/MIC) (E. coli 50739822) | MIC (E. coli 50676002) [µg/mL] | selectivity index (EC50/MIC) (E. coli 50676002) | MIC (P. aeruginosa K44-24) [µg/mL] | selectivity index (EC50/MIC) (P. aeruginosa K44-24) | MIC (P. aeruginosa 50692172) [µg/mL] | selectivity index (EC50/MIC) (P. aeruginosa 50692172) | MIC (P. aeruginosa 50692520) [µg/mL] | selectivity index (EC50/MIC) (P. aeruginosa 50692520) | MIC (P. aeruginosa K34-7) [µg/mL] | selectivity index (EC50/MIC) (P. aeruginosa K34-7) | MIC (P. aeruginosa K34-73) [µg/mL] | selectivity index (EC50/MIC) (P. aeruginosa K34-73) | MIC (A. baumanii K63-58) [µg/mL] | selectivity index (EC50/MIC) (A. baumanii K63-58) | MIC (A. baumanii K44-35) [µg/mL] | selectivity index (EC50/MIC) (A. baumanii K44-35) | MIC (A. baumanii K47-42) [µg/mL] | selectivity index (EC50/MIC) (A. baumanii K47-42) | further results
NCCCCN1C(=O)N(CCCCN)C(=O)C(Cc2cc(Br)cc(Br)c2)(Cc2cc(Br)cc(Br)c2)C1=O [7(ii)] | 8 (≈ 10.4 µM) | (10) | 8 (≈ 10.4 µM) | (10) | 16 (≈ 20.9 µM) | (5) | 16 (≈ 20.9 µM) | (5) | 16 (≈ 20.9 µM) | (5) | 16 (≈ 20.9 µM) | (5) | 16 (≈ 20.9 µM) | (5) | 16 (≈ 20.9 µM) | (5) | 16 (≈ 20.9 µM) | (5) | 16 (≈ 20.9 µM) | (5) | MIC (A. baumanii K55-13): 16 µg/mL (≈ 20.9 µM); selectivity index (EC50/MIC) (A. baumanii K55-13): (5); MIC (A. baumanii K12-21): 16 µg/mL (≈ 20.9 µM); selectivity index (EC50/MIC) (A. baumanii K12-21): (5); MIC [1]: 4 to 8 µg/mL (≈ 5.22 to 10.4 µM); selectivity index (EC50/MIC) (S. aureus N315): (21); MIC (S. aureus N315): 4 µg/mL (≈ 5.22 µM); selectivity index (EC50/MIC) (S. aureus NCTC 10442): (21); MIC (S. aureus NCTC 10442): 4 µg/mL (≈ 5.22 µM); selectivity index (EC50/MIC) (S. aureus strain 85/2082): (21); MIC (S. aureus strain 85/2082): 4 µg/mL (≈ 5.22 µM); selectivity index (EC50/MIC) (S. aureus IHT 99040): (21); MIC (S. aureus IHT 99040): 4 µg/mL (≈ 5.22 µM); selectivity index (EC50/MIC) (S. aureus strain WIS): (21); MIC (S. aureus strain WIS): 4 µg/mL (≈ 5.22 µM); IC50 [2]: 1 µg/mL (≈ 1.31 µM)
NCCCCN1C(=O)N(CCCCN)C(=O)C(Cc2cc(C(F)(F)F)cc(C(F)(F)F)c2)(Cc2cc(C(F)(F)F)cc(C(F)(F)F)c2)C1=O [7(vi)] | 16 (≈ 22.1 µM) | (11) | 16 (≈ 22.1 µM) | (11) | 32 (≈ 44.3 µM) | (6) | 32 (≈ 44.3 µM) | (6) | 32 (≈ 44.3 µM) | (6) | 32 (≈ 44.3 µM) | (6) | 32 (≈ 44.3 µM) | (6) | 32 (≈ 44.3 µM) | (6) | 32 (≈ 44.3 µM) | (6) | 32 (≈ 44.3 µM) | (6) | MIC (A. baumanii K55-13): 32 µg/mL (≈ 44.3 µM); selectivity index (EC50/MIC) (A. baumanii K55-13): (6); MIC (A. baumanii K12-21): 16 µg/mL (≈ 22.1 µM); selectivity index (EC50/MIC) (A. baumanii K12-21): (11); selectivity index (EC50/MIC) (S. aureus N315): (11); MIC (S. aureus N315): 16 µg/mL (≈ 22.1 µM); selectivity index (EC50/MIC) (S. aureus NCTC 10442): (11); MIC (S. aureus NCTC 10442): 16 µg/mL (≈ 22.1 µM); selectivity index (EC50/MIC) (S. aureus strain 85/2082): (11); MIC (S. aureus strain 85/2082): 16 µg/mL (≈ 22.1 µM); selectivity index (EC50/MIC) (S. aureus IHT 99040): (11); MIC (S. aureus IHT 99040): 16 µg/mL (≈ 22.1 µM); selectivity index (EC50/MIC) (S. aureus strain WIS): (11); MIC (S. aureus strain WIS): 16 µg/mL (≈ 22.1 µM)

— patent US11072588B2, “Barbituric acid derivatives comprising cationic and lipophilic groups” (UNIVERSITETET I TROMSØ—NORGES ARKTISKE UNIVERSITET, priority 2017, dated 2021)
